Measurements published in publication PMC5515969, “Effects of 31 FDA approved small-molecule kinase inhibitors on isolated rat liver mitochondria” (Archives of Toxicology, 2016).
Where two headings read alike, the source gives them in different places.

Experiments:
RCC I = RCC I activity in submitochondrial particles; format: biochemical, rat; settings: 15 min, DMSO-treated = 100
In short: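 First, submitochondrial particles (1 mg/ml) are incubated with inhibitor for 15 min. Next, complex activities are followed spectrophotometrically, with RCC I taken as the difference between buffers lacking and containing rotenone. Finally, activities are expressed relative to DMSO controls set at 1.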

RCC III = RCC III activity in submitochondrial particles; format: biochemical, rat; settings: 15 min, DMSO-treated = 100
In short: (§1)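 Abs 340 nm (I/V) or 600 nm (II), 1-min reads × 6 min; 550 nm (III, IV), 10-s reads × 2 min. RCC I = rotenone-free minus rotenone rate. DMSO control = 1.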

RCC IV = RCC IV activity in submitochondrial particles; format: biochemical, rat; settings: 15 min, DMSO-treated = 100
In short: as §1

RCC V = RCC V activity in submitochondrial particles; format: biochemical, rat; settings: 10-fold Cmax; 15 min; DMSO-treated = 100
In short: as §1

RCC I–V = assay: Activities of RCC I–V, overall statements; format: biochemical, rat; settings: submitochondrial particles
Description: KIs were incubated with submitochondrial particles (1 mg/ml) for 15 min and then RCC I–V activities measured. […] The activities of DMSO-treated samples (controls) were set as 1. […] The difference between the activity from rotenone-containing buffer and rotenone-absent buffer was considered as RCC I activity. […] For measuring RCC I/V and II activity, the changes in absorbance at 340 and 600 nm, respectively, were determined every 1 min for 6 min. For measuring RCC III and RCC IV, the changes in absorbance at 550 nm were measured every 10 s for 2 min.

[1] = human therapeutic Cmax at FDA recommended dosages; ref product labeling and drug approval packages at the official FDA website; cited from earlier work
[2] = cited from earlier work
[3] = test system: isolated rat liver mitochondria; assay: Mitochondrial oxygen consumption (glutamate/malate or succinate driven, state 4 and state 3); format: biochemical; settings: for Glutamate/malate driven respiration State 3 / Glutamate/malate driven respiration State 4 / Succinate-driven respiration State 3 / Succinate-driven respiration State 4: oxygen consumption, DMSO-treated = 1
In short: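 Oxygen uptake on glutamate/malate or on succinate defined state 4; ADP added 3 min later gave state 3. Mitochondria isolated from rat liver by differential centrifugation, adjusted to 1 mg/ml and pretreated 5 min with inhibitor (0.1% DMSO final). Values relative to DMSO control, set to 1.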

[4] = test system: isolated rat liver mitochondria; assay: Mitochondrial inner membrane potential (MMP), Rhodamine 123; format: biochemical
Description: Fig. 3 KI effects on mitochondrial inner membrane potential (MMP). […] In a, c, data are means and standard derivations from three separate experiments. *p < 0.05 as compared to DMSO-treated samples at the end of experiments. In b, data are means of two independent experiments

[5] = test system: isolated rat liver mitochondria; assay: Mitochondrial swelling (absorbance at 535 nm); format: biochemical
[6] = test system: isolated rat liver mitochondria; assay: Mitochondrial toxicity, any endpoint, intact mitochondria and submitochondrial particles; format: biochemical; settings: any endpoint
Description: Rats were anesthetized by an intraperitoneal injection of Nembutal and the liver perfused with PBS to remove the blood. The liver was then cut into small pieces and homogenized using a Dounce type homogenizer in the ice-cold isolation buffer (IB) containing 200 mM sucrose, 10 mM Tris-MOPS, 1 mM EGTA (pH 7.4). The sample was then centrifuged at 600g for 10 min. The supernatant was further centrifuged at 7500g for 10 min, and the pellets was washed once with the IB and centrifuged again at 7500g for 10 min to collect mitochondria. […] Before drug treatment, the protein concentration was adjusted to 1 mg/ml using appropriate buffer. […] Briefly, mitochondrial and cytosolic fractions from four different preparations using four rats were diluted using the Laemmli protein loading buffer and subject to SDS-PAGE with 4–20% gradient gels. The proteins were blotted to PVDF membranes and detected using antibodies against GAPDH, ATP5A, UQCRC2, SDHB, and NDUFB8.
The aliquoted stock solutions were kept for less than one month and each tube was used only once. The KIs were added to the mitochondria at 1:1000 dilutions. […] The Cmax data were from clinical trials which used FDA recommend dosages, route of administration, and duration. […] The final concentration of DMSO for drug treatment was always 0.1%, and control treatments were 0.1% DMSO.

[7] = test system: isolated rat liver mitochondria; assay: Mitochondrial ROS production (CM-H2DCFDA); settings: highest tested concentrations
[8] = up to 100-fold Cmax or highest testable concentration

For `C#Cc1cccc(Nc2ncnc3cc(OCCOC)c(OCCOC)cc23)c1` [Erlotinib], the “RCC activity I” value (RCC I; 10-fold Cmax) was 90.62 ± 2.87 % of control, the “RCC activity III” value (RCC III; 10-fold Cmax) was 103.11 ± 12.25 % of control and the “RCC activity IV” value (RCC IV; 10-fold Cmax) was 98.77 ± 4.53 % of control. The “RCC activity V” value (RCC V) was 83.52 ± 2.96 % of control, the “lowest concentration inhibiting RCCs” value (RCC I–V) was 10 fold Cmax and the Cmax [1] was 3.44 µM. For the same molecule, the “labeling for DILI” value ([2]; in vivo) was “W&P: fatal DILI” and the “DILI potential (based on labeling)” value ([2]; ref FDA product labeling) was 1.

For `CNC(=O)c1cc(Oc2ccc(NC(=O)Nc3ccc(Cl)c(C(F)(F)F)c3)cc2)ccn1` [Sorafenib], the “Glutamate/malate driven respiration State 3” value ([3]; 1-fold Cmax) was 1.15 ± 0.09, the “Glutamate/malate driven respiration State 4” value ([3]; 1-fold Cmax) was 2.55 ± 0.27 and the “Succinate-driven respiration State 3” value ([3]; 1-fold Cmax) was 1.00 ± 0.10. For the same molecule, the “Succinate-driven respiration State 4” value ([3]; 1-fold Cmax) was 1.50 ± 0.21, the “Glutamate/malate driven respiration State 3” value ([3]; 2.5-fold Cmax) was 1.57 ± 0.06 and the “Glutamate/malate driven respiration State 4” value ([3]; 2.5-fold Cmax) was 4.92 ± 0.09. For the same molecule, the “Succinate-driven respiration State 3” value ([3]; 2.5-fold Cmax) was 0.62 ± 0.05, the “Succinate-driven respiration State 4” value ([3]; 2.5-fold Cmax) was 1.43 ± 0.06 and the “Glutamate/malate driven respiration State 4” value ([3]; 5-fold Cmax) was 3.69 ± 0.12. For the same molecule, the “Succinate-driven respiration State 3” value ([3]; 5-fold Cmax) was 0.40 ± 0.01, the “Succinate-driven respiration State 4” value ([3]; 5-fold Cmax) was 1.03 ± 0.08 and the “Glutamate/malate driven respiration State 3” value ([3]; 10-fold Cmax) was 0.93 ± 0.34. The “Glutamate/malate driven respiration State 4” value ([3]; 10-fold Cmax) was 5.00 ± 1.92, the “Succinate-driven respiration State 3” value ([3]; 10-fold Cmax) was 1.03 ± 0.19 and the “Succinate-driven respiration State 4” value ([3]; 10-fold Cmax) was 3.34 ± 0.45. The “effect on state 4 respiration” value ([3]; highest tested concentrations) was “significant increases”, the “lowest concentration significantly affecting mitochondrial oxygen consumption” value ([3]; tested at 1 to 100-fold Cmax) was “equal to Cmax” and the “RCC activity I” value (RCC I; 5-fold Cmax) was 87.23 ± 10.61 % of control. The “RCC activity I” value (RCC I; 10-fold Cmax) was 85.45 ± 11.93 % of control, the “RCC activity III” value (RCC III; 5-fold Cmax) was 97.60 ± 5.50 % of control and the “RCC activity III” value (RCC III; 10-fold Cmax) was 94.31 ± 7.47 % of control. The “RCC activity IV” value (RCC IV; 5-fold Cmax) was 101.55 ± 3.61 % of control, the “RCC activity IV” value (RCC IV; 10-fold Cmax) was 107.65 ± 10.77 % of control and the “RCC activity V” value (RCC V) was 65.55 ± 6.34 % of control. For the same molecule, the “lowest concentration decreasing MMP” value [4] was “onefold”, the “effect on MMP” value [4, 8] was “decrease in MMP” and the “lowest concentration causing mitochondrial swelling” value [5] was 2.5 fold Cmax. The “effect on mitochondrial swelling” value ([5]; up to 100-fold Cmax or highest testable concentration, 25 µM calcium chloride) was “significant mitochondrial swelling”, the “lowest concentration inhibiting RCCs” value (RCC I–V) was “fivefold” and the RCCs inhibited (RCC I–V; [8]) was “RCC V”. The “lowest concentration causing significant mitochondrial toxicity” value [6] was “equal to the Cmax”, the Cmax [1] was 4.3 µM and the “labeling for DILI” value ([2]; W&P warnings and precautions, BBW black box warnings, ref FDA product labeling) was “W&P: fatal DILI”. For the same molecule, the “DILI potential (based on labeling)” value ([2]; ref FDA product labeling) was 1 and the “effect on ROS production” value [7] was “neither of them affected ROS production”.
